This is an account of results in patent US8680159B2, “Bradykinin 1 receptor modulating compounds” (Gruenenthal GmbH, priority 2010, dated 2014).

Read-outs that look alike come from different tables or passages of the source.

Experiment [1] addresses T1, human B1R receptor (CHO K1 cells stably transfected with the human B1R gene) (Homo sapiens, UniProt P46663).
T1 construct: expressed in transfected cells; host or cells: CHO K1 cells (Chinese hamster ovary), stably transfected
T1 sequence (P46663 1-353): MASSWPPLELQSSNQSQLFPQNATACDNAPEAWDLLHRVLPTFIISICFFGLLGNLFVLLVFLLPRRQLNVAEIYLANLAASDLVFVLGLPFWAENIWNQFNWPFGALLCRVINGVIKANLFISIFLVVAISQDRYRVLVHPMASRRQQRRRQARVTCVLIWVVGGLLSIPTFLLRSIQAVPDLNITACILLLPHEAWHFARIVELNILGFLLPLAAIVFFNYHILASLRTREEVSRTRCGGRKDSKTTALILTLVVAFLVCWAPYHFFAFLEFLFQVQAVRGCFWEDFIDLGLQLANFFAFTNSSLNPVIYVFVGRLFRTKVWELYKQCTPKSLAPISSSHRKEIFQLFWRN
Nature of the experiment: Functional study on the bradykinin receptor 1 (B1R), Ca2+ fluorescence (Fluo-4) FLIPR/Novostar assay, hB1R cells. The experiment is classed as cell-based. In a few lines: (§1)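 Test compounds (10 μM) were added first and the Ca2+ rise was scored as % activation against Lys-Des-Arg9-bradykinin (≥50 nM, human) or Des-Arg9-bradykinin (≥1 μM, rat). After 6-20 min, the matching agonist was given at its EC80, and % inhibition relative to maximal achievable inhibition was calculated.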

The target of experiment [2] is T2, B1R receptor of the rat (CHO K1 cells stably transfected with the B1R gene of the rat) (Rattus norvegicus, UniProt P97583).
T2 construct: expressed in transfected cells; host or cells: CHO K1 cells (Chinese hamster ovary), stably transfected
T2 sequence (P97583 1-337): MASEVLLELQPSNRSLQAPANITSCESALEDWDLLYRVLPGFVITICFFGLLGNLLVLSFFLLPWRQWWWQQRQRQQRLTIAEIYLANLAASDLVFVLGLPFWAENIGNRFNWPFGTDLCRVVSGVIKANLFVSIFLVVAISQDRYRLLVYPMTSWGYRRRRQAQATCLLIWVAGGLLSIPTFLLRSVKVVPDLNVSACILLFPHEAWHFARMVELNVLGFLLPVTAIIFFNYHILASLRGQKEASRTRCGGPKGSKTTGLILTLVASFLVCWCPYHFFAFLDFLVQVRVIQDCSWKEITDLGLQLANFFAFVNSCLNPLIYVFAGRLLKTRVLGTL
Nature of the experiment: Functional study on the bradykinin receptor 1 (B1R), Ca2+ fluorescence (Fluo-4) FLIPR/Novostar assay, rB1R cells. Particulars: CHO-K1, 10 μM. The format is cell-based. A digest of the protocol: as §1

Where [3] appears, read: CHO-K1, read-out: % inhibition (human B1R) at 10 μM.
The mark [4] stands for this setting: read-out: % inhibition (rat B1R) at 10 μM.
[5] abbreviates: CHO-K1, read-out: % Inhibition (h-B1R) at 10 μM.

In the case of `CN1CCN([C@@H]2CCC[C@H](N(C)C(=O)c3ccc4c(c3)[C@H](NC(=O)c3ccccc3Cl)CC4)C2)CC1` [Example H-103, (3R)-3-[(2-Chloro-benzoyl)amino]-N-methyl-N-[(1S,3R)-3-(4-methyl-piperazin-1-yl)-cyclohexyl]-2,3-dihydro-1H-indene-5-carboxylic acid amide], the inhibition at 10 µM in experiment [1] (setting [3]) stood at 27%; in experiment [2] (setting [4]), 72%.
The matching figures for `CN(C(=O)c1ccc2c(c1)[C@H](NC(=O)c1ccc(F)cc1)CC2)C1CCN(c2ccncc2)CC1` [Example H-75, (3R)-3-[(4-Fluoro-benzoyl)amino]-N-methyl-N-(1-pyridin-4-yl-piperidin-4-yl)-2,3-dihydro-1H-indene-5-carboxylic acid amide]: 100% and 105%.
Take `CN(C(=O)NC1CCc2ccc(C(=O)N(C)C3CCN(c4ccncc4)CC3)cc21)c1ccccc1Cl` (centres unmarked) [CC_H-44, 3-[[(2-Chlorophenyl)-methyl-carbamoyl]amino]-N-methyl-N-(1-pyridin-4-yl-piperidin-4-yl)-2,3-dihydro-1H-indene-5-carboxylic acid amide]: the figures for the inhibition at 10 µM in experiment [1] (setting [5]) and in experiment [2] (read-out: % Inhibition (r-B1R) at 10 μM) were 100% and 104%, respectively.
As for `CN(C(=O)c1ccc2c(c1)[C@H](NC(=O)c1ccccc1Cl)CC2)C1CCN(c2ccncc2)CC1(C)C` (stereo partly drawn) [Example H-60, (3R)-3-[(2-Chloro-benzoyl)amino]-N-(3,3-dimethyl-1-pyridin-4-yl-piperidin-4-yl)-N-methyl-2,3-dihydro-1H-indene-5-carboxylic acid amide], the inhibition at 10 µM in experiment [1] (setting [3]) is 99%; in experiment [2] (setting [4]) it was 103%.
On to `Cc1cc(C(=O)N[C@@H]2CCc3ccc(C(=O)N(C)C4CCN(c5ccncc5)CC4)cc32)no1` [Example H-62, 5-Methyl-N-[(1R)-6-[methyl-(1-pyridin-4-yl-piperidin-4-yl)-carbamoyl]-2,3-clihydro-1H-inden-1-yl]-isoxazole-3-carboxylic acid amide], for which the inhibition at 10 µM is 100% in experiment [1] (setting [3]) and 99% in experiment [2] (setting [4]).
As for `Cc1nccc(N2CCC(N(C)C(=O)c3ccc4c(c3)[C@H](NC(=O)c3ccccc3Cl)CC4)CC2)n1` [Example H-122, (3R)-3-[(2-Chloro-benzoyl)amino]-N-methyl-N-[1-(2-methyl-pyrimidin-4-yl)-piperidin-4-yl]-2,3-dihydro-1H-indene-5-carboxylic acid amide], the inhibition at 10 µM amounted to 100% in experiment [1] (setting [3]) and 103% in experiment [2] (setting [4]).
On to `CN(C(=O)c1ccc2c(c1)[C@H](NC(=O)c1ccccc1Cl)CC2)C1CCCN(c2ccncc2)C1` (stereo partly drawn) [Example H-115, (3R)-3-[(2-Chloro-benzoyl)amino]-N-methyl-N-(1-pyridin-4-yl-piperidin-3-yl)-2,3-dihydro-1H-indene-5-carboxylic acid amide], for which the inhibition at 10 µM in experiment [1] (setting [3]) was found to be 13%; in experiment [2] (setting [4]) it was 63%.
On to `CN(C(=O)c1ccc2c(c1)[C@H](NC(=O)Cc1ccccc1Cl)CC2)C1CCN(c2ccncc2)CC1` [Example H-35, (3R)-3-[[2-(2-Chlorophenyl)-acetyl]amino]-N-methyl-N-(1-pyridin-4-yl-piperidin-4-yl)-2,3-dihydro-1H-indene-5-carboxylic acid amide], for which the inhibition at 10 µM in experiment [1] (setting [3]) amounted to 100%; in experiment [2] (setting [4]), 105%.
For the compound `CNc1nccc(N2CCC(N(C)C(=O)c3ccc4c(c3)[C@H](NC(=O)c3ccccc3Cl)CC4)CC2)n1` [Example H-214, (3R)-3-[(2-Chloro-benzoyl)amino]-N-methyl-N-[1-(2-methylamino-pyrimidin-4-yl)-piperidin-4-yl]-2,3-dihydro-1H-indene-5-carboxylic acid amide], the inhibition at 10 µM in experiment [1] (setting [3]) came to 100%.
For the compound `CC(C)CC(=O)NC1CCCc2ccc(C(=O)N(C)C3CCN(c4ccncc4)CC3)cc21` (centres unmarked) [CC_H-135, N-Methyl-8-(3-methyl-butanoylamino)-N-(1-pyridin-4-yl-piperidin-4-yl)-5,6,7,8-tetrahydro-naphthalene-2-carboxylic acid amide], the inhibition at 10 µM in experiment [1] (setting [5]) came out at 100%.
For the compound `CN(C(=O)c1ccc2c(c1)C(NS(=O)(=O)c1c(Cl)cccc1C(F)(F)F)CC2(C)C)C1CCN(c2ccncc2)CC1` (centres unmarked) [CC_H-93, 3-[[[2-Chloro-6-(trifluoromethyl)-phenyl]sulfonyl]amino]-N,1,1-trimethyl-N-(1-pyridin-4-yl-piperidin-4-yl)-2,3-dihydro-indene-5-carboxylic acid amide], in experiment [1] (setting [5]), the inhibition at 10 µM amounted to 100%.
Turning to `Cc1cc(N2CCC(N(C)C(=O)c3ccc4c(c3)C(NC(=O)C(C)(C)c3ccccc3Cl)CC4)CC2)cc(C)n1` (centres unmarked) [CC_H-131, 3-[[2-(2-Chlorophenyl)-2-methyl-propanoyl]amino]-N-[1-(2,6-dimethyl-pyridin-4-yl)-piperidin-4-yl]-N-methyl-2,3-dihydro-1H-indene-5-carboxylic acid amide], the inhibition at 10 µM in experiment [1] (setting [5]) was 99%.
On to `Cc1cc(N2CCC(N(C)C(=O)c3cc4c(cc3F)CC[C@H]4N(C(=O)c3ccc(F)cc3Cl)C(C)C)CC2)nc(C)n1` [Example H-198, (3R)-3-[(2-Chloro-4-fluoro-benzoyl)-isopropyl-amino]-N-[1-(2,6-dimethyl-pyrimidin-4-yl)-piperidin-4-yl]-6-fluoro-N-methyl-2,3-dihydro-1H-indene-5-carboxylic acid amide], for which the inhibition at 10 µM in experiment [1] (setting [3]) turned out to be 76%.
Consider `CN(C(=O)c1ccc2c(c1)[C@H](NC(=O)c1ccccc1Cl)CC2)C1CCN(c2ccnc(N)n2)CC1` [Example H-244, (3R)-N-[1-(2-Amino-pyrimidin-4-yl)-piperidin-4-yl]-3-[(2-chloro-benzoyl)amino]-N-methyl-2,3-dihydro-1H-indene-5-carboxylic acid amide], for which the inhibition at 10 µM in experiment [1] (setting [3]) came out at 100%.
As for `Cc1cc(N2CCC(N(C)C(=O)c3ccc4c(c3)[C@H](N(C)C(=O)c3cc(F)ccc3Cl)CC4)CC2)nc(C)n1` [Example H-210, (3R)-3-[(2-Chloro-5-fluoro-benzoyl)-methyl-amino]-N-[1-(2,6 dimethyl-pyrimidin-4-yl)-piperidin-4-yl]-N-methyl-2,3-dihydro-1H-indene-5-carboxylic acid amide], the inhibition at 10 µM in experiment [1] (setting [3]) stood at 99%.
`CN(C(=O)c1ccc2c(c1)C(NS(=O)(=O)Cc1ccccc1C(F)(F)F)CCC2)C1CCN(c2ccncc2)CC1` (centres unmarked) [CC_H-125, N-Methyl-N-(1-pyridin-4-yl-piperidin-4-yl)-8-[[[2-(trifluoromethyl)-phenyl]-methylsulfonyl]amino]-5,6,7,8-tetrahydro-naphthalene-2-carboxylic acid amide]: the inhibition at 10 µM in experiment [1] (setting [5]) was 100%.
`Cc1cc(N2CCC(N(C)C(=O)c3ccc4c(c3)C(N(C)C(=O)CCC3CCCC3)CC4)CC2)cc(C)n1` (centres unmarked) [CC_H-84, 3-(3-Cyclopentyl-propanoyl-methyl-amino)-N-[1-(2,6-dimethyl-pyridin-4-yl)-piperidin-4-yl]-N-methyl-2,3-dihydro-1H-indene-5-carboxylic acid amide]: the inhibition at 10 µM in experiment [1] (setting [5]) amounted to 100%.
As for `CN(C(=O)c1ccc2c(c1)[C@H](N(C)C(=O)CCC1CCCC1)CC2)C1CCN(c2ccncc2F)CC1` [Example H-188, (3R)-3-(3-Cyclopentyl-propanoyl-methyl-amino)-N-[1-(3-fluoro-pyridin-4-yl)-piperidin-4-yl]-N-methyl-2,3-dihydro-1H-indene-5-carboxylic acid amide], in experiment [1] (setting [3]), the inhibition at 10 µM is 100%.
In the case of `Cc1cc(N2CCC(N(C)C(=O)c3cc4c(cc3F)CC[C@H]4N(C(=O)c3cccnc3C(F)(F)F)C(C)C)CC2)nc(C)n1` [Example H-209, N-[(1R)-6-[[1-(2,6-Dimethyl-pyrimidin-4-yl)-piperidin-4-yl]-metyl-carbamoyl]-5-fluoro-2,3-dihydro-1H-inden-1-yl]-N-isopropyl-2-(trifluoromethyl)-pyridine-3-carboxylic acid amide], the inhibition at 10 µM in experiment [1] (setting [3]) came to 10%.
`CC(C)(C(=O)NC1CCc2ccc(C(=O)NCCC3CCN(c4ccncc4)CC3)cc21)c1ccccc1Cl` (centres unmarked) [CC_H-103, 3-[[2-(2-Chlorophenyl)-2-methyl-propanoyl]amino]-N-[2-(1-pyridin-4-yl-piperidin-4-yl)-ethyl]-2,3-dihydro-1H-indene-5-carboxylic acid amide]: the inhibition at 10 µM in experiment [1] (setting [5]) was determined as 89%.
In the case of `CN(C(=O)c1ccc2c(c1)[C@H](N(C)C(=O)c1cccc(F)c1Cl)CC2)C1CCN(c2ccncc2)CC1` [Example H-205, (3R)-3-[(2-Chloro-3-fluoro-benzoyl)-methyl-amino]-N-methyl-N-(1-pyridin-4-yl-piperidin-4-yl)-2,3-dihydro-1H-indene-5-carboxylic acid amide], the inhibition at 10 µM in experiment [1] (setting [3]) is 100%.
